Experimental findings from patent publication US11040963B2 (priority 2017, dated 2021) are described below.

One data set has as its system H1N1 A/California/07/09. Description: microbe, parasite or virus in culture. The class given is cell-based, influenza A virus.
The test system of another data set is MDCK cells. The note with it: dog.
The subject of data set [1] is H1N1 A/New Caledonia/20/99. Description: microbe, parasite or virus in culture. The class given is cell-based, influenza A virus.
For a further data set, the system named is H1N1 A/PR/8/34-MA. Description: microbe, parasite or virus in culture. The class given is cell-based, influenza A virus.
For data set [2], the target named is HA H1 A/New Caledonia/20/99 (Influenza A virus (A/New Caledonia/20/1999(H1N1)), UniProt Q6WG00). Put plainly: biochemical. The note with it: Competition binding (AlphaLISA), pIC50 H1 A/New Caledonia/20/99. (In general: Alpha assays give light when donor and acceptor beads are brought close together.)
For data set [3], the target named is HA H1 A/California/07/09 (Influenza A virus (A/California/07/2009(H1N1)), UniProt C3W5X2). Description: biochemical. As to conditions: Competition binding (AlphaLISA), pIC50 H1 A/California/07/09.
The test system of the next data set is H5N1 A/Vietnam/1203/04. Description: microbe, parasite or virus in culture. In kind it is cell-based, influenza A virus. As to conditions: 96 h, average of repeats.
The target in data set [4] is HA H5 A/Vietnam/1203/04 (Influenza A virus (A/Vietnam/1203/2004(H5N1)), UniProt Q5EP31). Description: biochemical. The note with it: Competition binding (AlphaLISA), pIC50 H5 A/Vietnam/1203/04.

`COC(=O)[C@@H](c1ccccc1)N1CCN(C(=O)c2cccc(-c3nc4ccc(OC)cc4s3)c2)CC1` [Example 22]: the “Virus neutralization assay (VNA), pEC50 H1N1 A/California/07/09” value in the data set on H1N1 A/California/07/09 came out at 6.8. For the same compound, the “Cytotoxicity (pCC50) MDCK” value in the data set with MDCK cells was below 4.3. Moreover, the “Virus neutralization assay (VNA), pEC50 H1N1 A/New Caledonia/20/99” value in data set [1] was determined as 6.9. Further, the “Virus neutralization assay (VNA), pEC50 H1N1 A/PR/8/34-MA” value in the data set with H1N1 A/PR/8/34-MA is 6.9. Besides, the IC50 is 12.6 nM in data set [2] and 15.8 nM in data set [3]. For the same compound, in the data set with H5N1 A/Vietnam/1203/04 (MDCK cells, CPE by ATPlite), the “Virus neutralization assay (VNA), pEC50 H5N1 A/Vietnam/1203/04” value is 5.8.
Regarding `COC(=O)C(c1ccccc1)N1CCN(C(=O)c2cccc(-c3ccc(OC)cc3)c2)CC1` (centres unmarked) [Example 128], the EC50 with H1N1 A/California/07/09 (Influenza A virus, H1N1, MDCK, 96 h, read-out: Virus neutralization assay (VNA), pEC50 H1N1 A/California/07/09 (converted)) is 3160 nM; in the data set with H5N1 A/Vietnam/1203/04 (Influenza A virus, H5N1, MDCK, read-out: Virus neutralization assay (VNA), pEC50 H5N1 A/Vietnam/1203/04, MDCK cells, 96 h, CPE by ATPlite (converted)), 10000 nM. Also, the “Cytotoxicity (pCC50) MDCK” value with MDCK cells is listed as below 4.3. Also, in data set [1], the “Virus neutralization assay (VNA), pEC50 H1N1 A/New Caledonia/20/99” value came to 5.7. Also, the results for the IC50 in data set [2], in data set [3] and in data set [4] were 158 nM, 251 nM and 3160 nM, respectively.

Broadly, the IC50 is the midpoint of a concentration-inhibition curve.
